According to patent US20030013660A1, “Dioxolane analogs for improved inter-cellular delivery” (Shire BioChem Inc., priority 2000, published 2003):
Where “and” joins values, the source holds several entries; their conditions need not be identical. Identical values can stand only once. Blank lines part the entries; values can stand above or below the compound they belong to.

What was measured:
CEM/dCK- [1] = experiment: MTT or WST-1 assay at 72 hr (24 hr drug exposure, wash, 48 hr); assay type: cell-based; conditions: for Resistance Factor*: single experiment
Procedure: (§1) Exposition of 24hr to drug, washed, and incubated for another 48hr (total of 72hr assay)

CCRF-CEM [2] = experiment: as above; assay type: cell-based
Procedure: as §1

MCF-7 [3] = experiment: MTT assay at 72 hr (24 hr drug exposure, wash, 48 hr); assay type: cell-based; conditions: Homo sapiens
Procedure: as §1

H-460 [4] = experiment: as above; assay type: cell-based
Procedure: as §1

SF-268 [5] = experiment: as above; assay type: cell-based
Procedure: as §1

MCF-7 [6] = experiment: 3H-TdR incorporation at 72 hr (24 hr drug exposure, wash, 48 hr); assay type: cell-based, Human; conditions: Homo sapiens, MCF7, read-out: IC50 in μM (3H-TdR incorporation at 72 hr) MCF-7 24 h, MCF-7 Human Breast Carcinoma, 72 hr assay
Procedure: (§2) Exposition of 24 hr to drug, wash, incubated for another 48 hr (total of 72 hr assay)
(§3) (3H-Thymidine Incorporation Assay)

H-460 [7] = experiment: as above; assay type: cell-based, Human; conditions: Homo sapiens, NCI-H460, read-out: IC50 in μM (3H-TdR incorporation at 72 hr) H-460 24 h, H-460 Human Lung Carcinoma, 72 hr assay
Procedure: as §2, §3

SF-268 [8] = experiment: as above; assay type: cell-based, Human; conditions: Homo sapiens, SF-268, read-out: IC50 in μM (3H-TdR incorporation at 72 hr) SF-268 24 h, SF-268 Human Central Nervous System Tumor; 24 h drug exposure, 72 hr assay
Procedure: as §2, §3

CEM/dCK- [9] = experiment: as above; assay type: cell-based; conditions: Homo sapiens, CCRF-CEM, read-out: IC50 in μM (3H-TdR incorporation at 72 hr) CEM/dCK- 24 h, CCRF-CEM deoxycytidine kinase-deficient; 24 h drug exposure, 72 hr assay
Procedure: as §2, §3

SF-268 [10] = experiment: 3H-TdR (3H-thymidine) incorporation assay at 72 hr; assay type: cell-based, Human
CEM/dCK- [11] = experiment: 3H-TdR (3H-thymidine) incorporation assay at 72 hr; assay type: cell-based
Procedure: (§4) Table of IC50 Values (μM) for Controls
as §2, §3

CCRF-CEM [12] = experiment: 3H-TdR (3H-thymidine) incorporation assay at 72 hr; assay type: cell-based
Procedure: as §4, §2, §3

MCF-7 [13] = experiment: 3H-TdR (3H-thymidine) incorporation assay at 72 hr; assay type: cell-based, Human; conditions: Homo sapiens
H-460 [14] = experiment: 3H-TdR (3H-thymidine) incorporation assay at 72 hr; assay type: cell-based, Human; conditions: Homo sapiens
[15] = read-out: IC50 CEM/dCK- 24 h, MMT or WST-1 at 72 hr, 24 h exposure, single experiment
[16] = Homo sapiens, CCRF-CEM, read-out: IC50 CCRF-CEM 24 h, MMT or WST-1 at 72 hr, 24 h exposure, single experiment
[17] = MCF7, read-out: IC50 MCF-7 24 h, MTT at 72 hr, 24 h exposure, single experiment
[18] = Homo sapiens, NCI-H460, read-out: IC50 H-460 24 h, MTT at 72 hr, 24 h exposure, single experiment
[19] = Homo sapiens, SF-268, read-out: IC50 SF-268 24 h, MTT at 72 hr, 24 h exposure, single experiment

IC50 (CCRF-CEM [2]; [16]): 880 nM | IC50 (MCF-7 [3]; [17]): 16000 nM
Compound: CC(C)C(C(=O)OC[C@H]1OC[C@@H](n2ccc(N)nc2=O)O1)c1ccccc1 (mixture of isomers) [Compound 262, 3-METHYL-2-PHENYL- BUTYRIC ACID 4-(4- AMINO-2-OXO-2H- PYRIMIDIN-1-YL)- [1,3]DIOXOLAN-2- YLMETHYL ESTER]
Resistance Factor* (CEM/dCK- [1]; CEM/dCK- versus CCRF-CEM): >114 | IC50 (CEM/dCK- [1]; [15]): > 100000 nM | IC50 (H-460 [4]; [18]): 900 nM | IC50 (SF-268 [5]; [19]): > 100000 nM

IC50 (CCRF-CEM [2]; [16]): 24 nM | IC50 (MCF-7 [3]; [17]): 250 nM
Compound: CCCCC(C)(C)C(=O)OC[C@H]1OC[C@@H](n2ccc(N)nc2=O)O1.Cl (stereo in doubt) [Compound 107, 2,2-DIMETHYLHEXANOIC ACID 4-(4-AMINO-2-OXO- 2H-PYRIMIDIN-1-YL)-1,3- DIOXOLAN-2-YLMETHYL ESTER HYDROCHLORIDE]
Resistance Factor* (CEM/dCK- [1]; CEM/dCK- versus CCRF-CEM): 2.042 | IC50 (CEM/dCK- [1]; [15]): 49000 nM | IC50 (H-460 [4]; [18]): 270 nM | IC50 (SF-268 [5]; [19]): 3400 nM

IC50 (CCRF-CEM [2]; [16]): 340 nM | IC50 (MCF-7 [6]): ≤ 0.0001 µM | IC50 (H-460 [7]): 0.00088 µM | IC50 (SF-268 [8]): 0.018 µM | IC50 (CEM/dCK- [9]): 14 µM | IC50 (MCF-7 [3]; [17]): 9.4 nM
Compound: CCCCCCCC/C=C/CCCCCCCC(=O)Nc1ccn([C@@H]2CO[C@H](CO)O2)c(=O)n1 (stereo in doubt) [Compound 216, Octadec-9-enoic acid [1-(2-hydroxymethyl-[1,3]dioxolan-4-yl)-2-oxo-1,2-dihydro-pyrimidin-4-yl]-amide]
Resistance Factor* (CEM/dCK- [1]; CEM/dCK- versus CCRF-CEM): 91 | IC50 (CEM/dCK- [1]; [15]): 31000 nM | IC50 (H-460 [4]; [18]): 64 nM | IC50 (SF-268 [5]; [19]): 400 nM

IC50 (SF-268 [10]; Homo sapiens, SF-268, 24 h, read-out: IC50 SF-268 24 h, Average, Average ± spread of the repeat determinations, 24 h exposure): 440 nM | IC50 (SF-268 [10]; Homo sapiens, SF-268, read-out: IC50 SF-268 (72 h), 72 h exposure, 3H-TdR incorporation at 72 hr): 96 nM | IC50 (SF-268 [10]; read-out: IC50 SF-268 24 h, 24 h drug exposure, wash, another 48 hr, 3H-TdR incorporation at 72 hr): 330 nM and 660 nM | IC50 (CCRF-CEM [2]; Homo sapiens, CCRF-CEM, read-out: IC50 CCRF-CEM 24 h, Average, MMT or WST-1 at 72 hr, Average of the experiments): 380 ± 280 nM | IC50 (CCRF-CEM [2]; read-out: IC50 CCRF-CEM 24 h, MMT or WST-1 at 72 hr, 24 h exposure, single experiment): 210 nM and 140 nM | IC50 (CEM/dCK- [11]; 24 h, read-out: IC50 CEM/dCK- 24 h, Average, Average ± spread of the repeat determinations, 24 h exposure): > 100000 nM | IC50 (CEM/dCK- [11]; Homo sapiens, CCRF-CEM, read-out: IC50 CEM/dCK- 24 h, 24 h drug exposure, wash, another 48 hr, deoxycytidine kinase-deficient CCRF-CEM): > 100000 nM | IC50 (CEM/dCK- [11]; read-out: IC50 CEM/dCK- 24 h, 24 h drug exposure, wash, another 48 hr, deoxycytidine kinase-deficient CCRF-CEM): 56000 nM | IC50 (CCRF-CEM [12]; Homo sapiens, CCRF-CEM, 24 h, read-out: IC50 CCRF-CEM 24 h, Average, Average ± spread of the repeat determinations, 24 h exposure): 78 nM | IC50 (CCRF-CEM [12]; read-out: IC50 CCRF-CEM 24 h, 24 h drug exposure, wash, another 48 hr, 3H-TdR incorporation at 72 hr): 100 nM | IC50 (MCF-7 [13]; MCF7, 24 h, read-out: IC50 MCF-7 24 h, Average, Average ± spread of the repeat determinations, 24 h exposure): 180 nM | IC50 (MCF-7 [13]; MCF7, read-out: IC50 MCF-7 (72 h), 72 h exposure, 3H-TdR incorporation at 72 hr): 66 nM | IC50 (H-460 [14]; NCI-H460, 24 h, read-out: IC50 H-460 24 h, Average, Average ± spread of the repeat determinations, 24 h exposure): 120 nM | IC50 (H-460 [14]; NCI-H460, read-out: IC50 H-460 (72 h), 72 h exposure, 3H-TdR incorporation at 72 hr): 40 nM | IC50 (MCF-7 [3]; MCF7, read-out: IC50 MCF-7 24 h, Average, MTT at 72 hr, Average of the experiments): 2000 ± 2400 nM
Compound: Nc1ccn([C@@H]2CO[C@H](CO)O2)c(=O)n1 [BCH-4556]
Resistance Factor*, Average (CEM/dCK- [1]; CEM/dCK- versus CCRF-CEM, Average of the experiments): 349 ± 283 | IC50 (CEM/dCK- [1]; read-out: IC50 CEM/dCK- 24 h, Average, MMT or WST-1 at 72 hr, Average of the experiments): > 100000 nM | Factor* (Resistance Factor), Average (CEM/dCK- [11]; Average ± spread of the ratios dCK- on wild-type CCRF-CEM): 1792 ± 1584 | IC50 (H-460 [4]; Homo sapiens, NCI-H460, read-out: IC50 H-460 24 h, Average, MTT at 72 hr, Average of the experiments): 1600 ± 1600 nM | IC50 (H-460 [4]; read-out: IC50 H-460 24 h, MTT at 72 hr, 24 h exposure, single experiment): 780 nM | IC50 (SF-268 [5]; Homo sapiens, SF-268, read-out: IC50 SF-268 24 h, Average, MTT at 72 hr, Average of the experiments): 29000 ± 23000 nM | IC50 (SF-268 [5]; read-out: IC50 SF-268 24 h, MTT at 72 hr, 24 h exposure, single experiment): 16000 nM
